Molecules are shown by their SMILES. Like-named read-outs stand apart in the source and are kept apart here.

Assay [1] relates to HT-29 human colon cancer cells. In words: HT-29 Model, third assay (C): tumor volume, 5-FU days 14-17 with or without celecoxib or valdecoxib in the diet (Table 21). The class given is in vivo, mice. Conditions: for reduction in tumor volume: mice with HT-29 tumors, 5-FU i.p. 50 mg/kg days 14 through 17, celecoxib 1600 ppm, valdecoxib 160 ppm in the diet.
Procedure: (§1) Mice were injected subcutaneously in the left paw (1×10^6 tumor cells suspended in 30% Matrigel) and tumor volume was evaluated using a phlethysmometer twice a week for 30-60 days. Implantation of human colon cancer cells (HT-29) into nude mice produces tumors that will reach 0.6-2 ml between 30-50 days. […] The data are expressed as the mean+/−SEM. Student's and Mann-Whitney tests were used to assess differences between means using the InStat software package.
(§2) The efficacy of both agents were determined by measuring tumor volume.
For assay [2], the system named is HT-29 human colon cancer cells. Conditions: mice with HT-29 tumors; 5-FU i.p. 50 mg/kg on days 12, 13, 14, 15; celecoxib in the diet.
Procedure: as §1, §2
Assay [3] deals with HT-29 human colon cancer cells.
Procedure: as §1, §2
In assay [4] the test system is HT-29 human colon cancer cells. Briefly: HT-29 Model, fourth assay (D): celecoxib 10, 40 or 160 ppm in the diet from day 10 (Table 22). It is filed as in vivo, mice. Conditions: celecoxib 10, 40 or 160 ppm in the diet beginning at day 10.
Procedure: as §1
The next assay deals with Lewis Lung tumors. Briefly: Lewis Lung Model: tumor volume and lung metastasis in mice. The class given is in vivo.

Procedure for Lewis Lung tumors: Mice were injected subcutaneously in the left paw (1×10^6 tumor cells suspended in 30% Matrigel) and tumor volume was evaluated using a phlethysmometer twice a week for 30-60 days. […] The data are expressed as the mean+/−SEM. Student's and Mann-Whitney tests were used to assess differences between means using the InStat software package. […] Analysis of lung metastasis was done in all the animals by counting metastasis in a stereomicroscope and by histochemical analysis of consecutive lung sections.

As to `O=c1[nH]cc(F)c(=O)[nH]1` [5-FU, 5-fluorouracil], the “reduction in tumor volume” value in assay [1] stood at 35%. For the same compound, the “reduction of tumor volume” value in assay [2] came to 61%.

For the compound `COc1ccc2c(c1)c(CC(=O)O)c(C)n2C(=O)c1ccc(Cl)cc1` [indomethacin], the “formation of lung metastasis” value in assay [3] (mice with HT-29 tumors) is on record as “ineffective”. Besides, the “inhibition of tumor formation” value in assay [3] (mouse, in vivo, 2 mg/kg/day) is listed as 77%.

Take `Cc1ccc(-c2cc(C(F)(F)F)nn2-c2ccc(S(N)(=O)=O)cc2)cc1` [celecoxib, 4-[5-(4-methylphenyl)-3-(trifluoromethyl)-1H-pyrazol-1-yl]-benzenesulfonamide]: in assay [4], the “effect on HT-29 tumors, dose dependence” value is recorded as “approximate dose dependent effect”. Besides, the “Tumor Volume” value in assay [1] (celecoxib 160 ppm in diet, day 11) worked out at 0.05 mL; in assay [1] (celecoxib 160 ppm in diet, day 14), 0.13 mL; in assay [1] (celecoxib 160 ppm in diet, day 18) it was 0.17 mL; in assay [1] (celecoxib 160 ppm in diet, day 21), 0.2 mL; in assay [1] (celecoxib 160 ppm in diet, day 28) it was 0.25 mL; in assay [1] (celecoxib 160 ppm in diet, day 35), 0.35 mL. The “Tumor Volume” value in assay [1] (celecoxib 160 ppm in diet, day 42) was 0.52 mL. In addition, the “reduction in tumor volume” value in assay [1] came out at 52%. Also, in the assay on Lewis Lung tumors (celecoxib in the diet), the “size of the metastasic lesions in the lung, histopathological analysis” value is on record as “dose-dependently reduced”. For the same compound, the “reduction of surface metastasis (lung)” value in the assay with Lewis Lung tumors (celecoxib in the diet 480-3200 ppm) was “more than 50%”. The “effect on lung metastasis” value in the assay with Lewis Lung tumors (celecoxib in the diet, lower dose of 160 ppm) was “did not affect”. Moreover, in assay [2], the “reduction of tumor volume” value is on record as 68%.

On to `NS(=O)(=O)c1ccc(-n2nc(C(F)(F)F)cc2-c2ccc(Cl)cc2)cc1` [SC-58236], for which the “formation of lung metastasis” value in assay [3] (mice with HT-29 tumors) is on record as “completely inhibited”. Further, in assay [3] (mice with HT-29 tumors, COX-2 inhibitor in the diet), the “reduction of tumor volume” value was determined as 89%.

With `Cc1onc(-c2ccccc2)c1-c1ccc(S(N)(=O)=O)cc1` [valdecoxib, 4-(5-methyl-3-phenylisoxazol-4-yl)benzenesulfonamide], in assay [1], the “reduction in tumor volume” value amounted to 69%. The “Tumor Volume” value in assay [1] (valdecoxib 160 ppm in diet, day 11) turned out to be 0.06 mL; in assay [1] (valdecoxib 160 ppm in diet, day 14), 0.13 mL; in assay [1] (valdecoxib 160 ppm in diet, day 18) it was 0.17 mL; in assay [1] (valdecoxib 160 ppm in diet, day 21), 0.2 mL; in assay [1] (valdecoxib 160 ppm in diet, day 28) it was 0.25 mL; in assay [1] (valdecoxib 160 ppm in diet, day 35), 0.32 mL. In addition, the “Tumor Volume” value in assay [1] (valdecoxib 160 ppm in diet, day 42) was 0.36 mL.

Values taken from patent US20050037090A1, “Combination therapy including a cyclooxygenase-2 inhibitor and an antineoplastic agent” (priority 1998, published 2005).
